Here are results for two molecules from patent US20220339257A1, “METHODS TO INCREASE THE SENSITIVITY AND REVERSING THE RESISTANCE TO DRUGS” (Biomarker Strategies, LLC, priority 2019, published 2022).

Format in all cases: cell-based
Assay [1] has as its system HCC827 (EGFR deletion mutant line). The assay can be described thus: MTT cell survival assay. Conditions: 10 ng/ml of EM2 combined with erlotinib, 72 hours. How it is done: (§1) Cells (10^4 cells/well) were grown in 96-well plates and exposed for 72 hours to different doses of erlotinib, alone or in combination with EM2. The percentage of cell survival was determined using the 3-(4, 5-dimethylthiazol-2-yl)-2, 5-diphenyltetrazolium bromide (MTT). Single drug alone and vehicle were kept as controls.

The test system of another assay is H1581 (EGFR WT). Kind of assay: MTT cell survival assay. Conditions: EM2 (10, 30, 50 ng/ml) combined with Erlotinib 7 μM; Erl-resistant EGFR WT cells. How it is done:
as §1

The subject of assay [2] is H1975 (EGFR-double mutant line). Kind of assay: MTT cell survival assay. The following applies: EM2 10 ng/ml combined with erlotinib; Erl-resistant H1975; 72 hours. How it is done: as §1
A general note: Tetrazolium dyes change colour on reduction, which living cells bring about.

The test system of the next assay is Ca-922 cell line. The assay can be described thus: HoPI live cell staining. On the set-up: concentration or dose not given beside the values. The following applies: 24 hours. The source says: A double stain of Hoechst 33342 and propidium iodide allows for the determination of cell viability with high specificity and low background noise, as compared to trypan blue staining. Hoechst 33342 is a cell permeable blue fluorescent nuclear stain which will stain all cell types. Propidium iodide is a cell impermeable red fluorescent nuclear stain that will only bind to the nuclei of cells with compromised membranes (dead cells). The staining can be performed rapidly on live cell suspensions within 15 minutes. 25 uL of 4× Hoechst 33342 Solution (40 ug/mL) and 25 uL of 4×Propidium Iodide Solution are added to 50 uL of cell suspension. The suspension was gently mixed 10 times and 50 uL was immediately transferred to a microfluidic cell counting chip. A 365 nm LED was used to excite both Hoechst 33342 and propidium iodide. Images of the cells were captured using a 10× objective lens on an Olympus microscope using a Canon EOS 6D camera using an ISO of 800 and an exposure of 2 seconds; both JPEG and RAW images were saved for analysis. The blue channel was used to measure the total number of cells and the red channel was used to measure the number of dead cells. Cell counting was performed automatically by the Image Pro software (Media Cybernetics, Inc).
MTA and EM effects on apoptosis were measured by Hoechst-Propidium Iodide staining (HoPI). For the assay, cells were seeded in 6-well plates at 400K cells per well, in 2 mL of 10% FBS-containing media and incubated for 24 hours. At 24 hours, a 1 nM to […] range of MTA and/or 1 ng/mL to 1 mg/mL range of EM doses was added and incubated for 24 hours. After 24 hours incubation respective cells' media was collected, added the 1× HBSS wash from the plate in the respective tube. Adherent cells were detached by treating with Accutase for 6 minutes and collected in respective tubes. All samples were centrifuged for 5 minutes at 1200 RPM. The cell pellets were resuspended in PBS and centrifuged again for 5 minutes at 1200 RPM. Cell pellets were resuspended in 200 uL of PBS and mixed properly to get single cell suspension. 50 uL of cell suspension was added into separate tubes having 10 uL of a 2× HOPI solution (20 ug/mL Hoechst 33342 and 20 ug/mL propidium iodide solution) to get a final concentration of Hoechst 33342 and propidium iodide to […]. Make up the volume to 100 uL with 40 uL of PBS. Samples were mixed thoroughly for even cell staining and the microfluidsic chip wells were each filled with 10 uL of sample. Chips were then incubated in the dark for 20 minutes. A 365 nm LED was used to excite both Hoechst 33342 and propidium iodide as they were visualize under a microscope. Cell images were captured using a 10× objective lens on an Olympus microscope using a Canon EOS 6D camera with an ISO of 800 and an exposure of 2 seconds; both JPEG and RAW images were saved for analysis. The blue channel was used to measure the total number of cells and the red channel was used to measure the number of dead cells. For image analysis, a copy of the image was created and converted directly into an 8-bit gray scale image. A threshold was placed on the image to create a binary mask; the threshold level was 20 intensity units out of 255 intensity units. Next, a particle analysis algorithm was applied to the binary mask and a set of cellular regions (between 100 to 800 cellular regions per image) was created. The original image was then split into red, green and blue channels. The area, mean intensity, standard deviation of the mean intensity, minimum intensity, maximum intensity and perimeter were measured for each cellular region in the red channel and also in the blue channel. The green channel was discarded. To discern between live and dead cells, the maximum intensity in the red channel was used with a threshold of 100 intensity units. Double plots were created using the intensity of the blue channel (X-axis) and the intensity of the red channel (Y-axis). […]

As to tumor necrosis factor-alpha [EM2], the “cell survival (MTT), sensitivity to erlotinib” value in assay [1] was “increased sensitivity to Erl”. The “cell survival (MTT), sensitization to erlotinib” value in the assay on H1581 (EGFR WT) is listed as “sensitized to Erl”. Further, in assay [2], the “cell survival (MTT), response to erlotinib” value is “enhanced response”. Also, the “reduction in the number of live cells (HoPI)” value in the assay with Ca-922 cell line (osimertinib and TNFa in combination) is given as 67%; in the assay with Ca-922 cell line (single agent), 21%.

B1: interferon-alpha-1 (protein, UniProt P01562 24-189, looked up)
Interferon alpha-1/13: CDLPETHSLDNRRTLMLLAQMSRISPSSCLMDRHDFGFPQEEFDGNQFQKAPAISVLHELIQQIFNLFTTKDSSAAWDEDLLDKFCTELYQQLNDLEACVMQEERVGETPLMNADSILAVKKYFRRITLYLTEKKYSPCAWEVVRAEIMRSLSLSTNLQERLRRKE
notes: enhancer molecule, cytokine purchased from Sigma
Consider B1, for which the “reduction in the number of live cells (HoPI)” value with Ca-922 cell line (GSK458 and IFNa in combination) came to 26%; in the assay with Ca-922 cell line (single agent), 24%.
